In data set [1] the test system is BxPC-3. Kind of data set: ADCC activity of hRS7-ADC conjugates. It is filed as cell-based, human. As to conditions: 33.3 nM; PBMC effector to target ratio 100:1. An excerpt: PBMCs were purified from blood purchased from the Blood Center of New Jersey. A Trop-2-positive human pancreatic adenocarcinoma cell line (BxPC-3) was used as the target cell line with an effector to target ratio of 100:1.

In data set [2] the test system is p21^Waf1/Cip1 and p53. The data set can be described thus: Signaling events (p21Waf1/Cip1, p53) in BxPC-3. It is filed as cell-based, human.
Description: (§1) Our initial studies examined the expression of 2 proteins involved in early signaling events (p21^Waf1/Cip1 and p53) and 1 late apoptotic event [cleavage of poly-ADP-ribose polymerase (PARP)] in vitro (not shown).
Data set [3] concerns p21^Waf1/Cip1 and p53. Kind of data set: Signaling events (p21Waf1/Cip1, p53) in Calu-3. In kind it is cell-based, human.
Description: as §1
The subject of data set [4] is COLO 205 tumors. The data set can be described thus: COLO 205 xenograft therapy. It is filed as in vivo.
Protocol: (§2) NCr female athymic nude (nu/nu) mice, 4 to 8 weeks old, and male Swiss-Webster mice, 10 weeks old, were purchased from Taconic Farms. […] Tumor volume (TV) was determined by measurements in 2 dimensions using calipers, with volumes defined as: L×w^2/2, where L is the longest dimension of the tumor and w is the shortest. […] This dosing frequency reflected a consideration of the conjugate's serum half-life in vitro, to allow a more continuous exposure to the ADC.
(§3) Statistics—Growth curves are shown as percent change in initial TV over time. Statistical analysis of tumor growth was based on area under the curve (AUC). Profiles of individual tumor growth were obtained through linear-curve modeling. An f-test was employed to determine equality of variance between groups before statistical analysis of growth curves. A 2-tailed t-test was used to assess statistical significance between the various treatment groups and controls, except for the saline control, where a 1-tailed t-test was used (significance at P≤0.05). Statistical comparisons of AUC were performed only up to the time that the first animal within a group was euthanized due to progression.
Data set [5] relates to SK-MES-1 human squamous cell lung tumors. Kind of data set: SK-MES-1 xenograft therapy. It is filed as in vivo. As to conditions: for tumor volume (TV): 0.4 mg/kg, 28 days.
Protocol: as §2, §3
Data set [6] concerns Capan-1. The data set can be described thus: Combination 90Y-hPAM4 RAIT + ADC, Capan-1 xenograft. It is filed as in vivo, mouse. The text has this: Objective responses occurred in most animals, but they were more robust in both of the combination groups as compared to each agent given alone. […] These studies provide the first evidence that combined radioimmunotherapy and ADC enhances efficacy at safe doses.

In data set [7] the target is T1, rhTrop-2/TACSTD2 (Homo sapiens, UniProt P09758).
T1 construct: purchased Sino Biological, Inc
T1 sequence (P09758 27-323): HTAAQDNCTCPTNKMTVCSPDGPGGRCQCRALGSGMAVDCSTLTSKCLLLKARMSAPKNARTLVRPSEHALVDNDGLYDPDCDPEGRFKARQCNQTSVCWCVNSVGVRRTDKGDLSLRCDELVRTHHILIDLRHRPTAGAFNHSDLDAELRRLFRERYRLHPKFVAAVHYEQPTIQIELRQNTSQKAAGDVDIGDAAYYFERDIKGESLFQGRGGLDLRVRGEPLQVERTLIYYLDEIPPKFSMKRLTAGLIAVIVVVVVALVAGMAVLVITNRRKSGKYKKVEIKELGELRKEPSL
Kind of data set: Surface plasmon resonance (BIACORE), Trop-2. Particulars: for Kd: low-density Trop-2 chip, three independent runs, read-out: binding affinity (KD). It is filed as binding. The text has this: Surface Plasmon Resonance Binding (BIACORE)—Briefly, rhTrop-2/TACSTD2 (Sino Biological, Inc.) or recombinant human neonatal receptor (FcRn), produced as described (Wang et al., 2011, Drug Metab Dispos 39:1469-77), was immobilized with an amine coupling kit (GE Healthcare; Cat. No. BR-1000-50) on a CM5 sensor chip (GE Healthcare; Cat. #BR-1000-12) following manufacturer's instructions for a low-density chip. […] Each set would make up a separate run on the BIACORE (BIACORE-X; Biacore Inc., Piscataway, NJ) and data were analyzed using BIAevaluation Software (Biacore Inc., v4.1). Analysis was performed with a 1:1 (Langmuir) Binding Model and Fit, using all five concentration points for each sample run to determine the best fit (lowest χ^2 value). The KDvalue was calculated using the formula KD=kd1/ka1, where kd1 is the dissociation rate-constant and ka1 is the association-rate constant.

Data set [8] deals with MDA-MB-468. Kind of data set: ADCC LDH-release, MDA-MB-468. It is filed as cell-based, human. As to conditions: for specific lysis (ADCC): MDA-MB-468, 33.3 nM, E:T 50:1, 4 h. The procedure:
The next day, peripheral blood mononuclear effector cells (PBMCs) were freshly isolated from a donor and added to assigned wells on the reaction plate at an E:T ratio of 50:1. Acquisition of human PBMCs was done under the approval of the New England Institutional Review Board (Newton, MA). […] One set of wells received ADCC assay medium alone for background control and another set of wells received cells alone plus TritonX100 for maximum cells lysis control. The plate was incubated for 4 h at 37° C. After 4 h, target cell lysis was assessed by a homogenous fluorometric LDH release assay (Cyto Tox-One Homogenous Membrane Integrity Assay; Promega, Cat. G7891).
Data were analyzed by Microsoft Excel. Percent specific lysis was calculated as follows:
where: • Experimental: effector+target cells+antibody • Effector+Target Control: effector+target cells • Max. Lysis: target cells+Triton-X100 • Target Control: target cells only

The nature of data set [9]: CDC activity. It is filed as cell-based.
The test system of data set [10] is BxPC-3. Kind of data set: dsDNA breaks, γH2AX induction in BxPC-3. It is filed as cell-based, human. Particulars: for Mean Fluorescence Intensity, γH2AX: untreated 2516 ± 191. The procedure: Assessment of Double-Stranded DNA Breaks In Vitro—For drug activity testing, BxPC-3 cells were seeded in 6-well plates at 5×10^5 cells/well and held at 37° C. overnight. […] The following morning, cells were trypsinized briefly, spun down, stained with Fixable Viability Stain 450 (BD Biosciences, San Jose, CA), washed with 1% BSA-PBS, and then fixed in 4% formalin for 15 min, washed again and permeabilized in 0.15% Triton-X100 in PBS for another 15 min. After washing twice with 1% BSA-PBS, cells were incubated with mouse anti-γH2AX-AF488 (EMD Millipore Corporation, Temecula, CA) for 45 min at 4° C. The signal intensity of γH2AX was measured by flow cytometry using a BD FACSCanto (BD Biosciences, San Jose, CA).

Data set [11] concerns the target T2, Trop-2 (Homo sapiens, UniProt P09758).
T2 sequence (P09758 27-323): T1 sequence (P09758 27-323)
The data set can be described thus: In vitro cell binding, multiple cell lines. The arrangement: endogenous in cells; host or cells: human cancer cell lines (ATCC). As to the method: In Vitro Cell Binding—LumiGLO Chemiluminescent Substrate System (KPL, Gaithersberg, MD) was used to detect antibody binding to cells. Briefly, cells were plated into a 96 black-well, flat-clear-bottom plate overnight. Antibodies were serially diluted 1:2 and added in triplicate, yielding a concentration range from 0.03 to 66.7 nM. After incubating for 1 h at 4° C., the media was removed and the cells washed with fresh cold media followed by the addition of a 1:20,000 dilution of goat-antihuman horseradish peroxidase-conjugated secondary antibody (Jackson Immunoresearch, West Grove, PA) for 1 h at 4° C. The plates were again washed before the addition of the LumiGLO reagent. Plates were read for luminescence using an Envision plate reader (Perkin Elmer, Boston MA). Data were analyzed by non-linear regression to determine the equilibrium dissociation constant (KD). Statistical comparisons of KD-values were made with Prism GraphPad Software (v4.03) (Advanced Graphics Software, Inc.; Encinitas, CA) using an F-Test on the best-fit curves for the data. Significance was set at P<0.05.

Broadly, the Kd is the equilibrium constant for the complex coming apart. As to IMMU-132, the “specific lysis (ADCC)” value in data set [1] was “no difference between hRS7-NEM and sacituzumab govitecan”; in [8] it was 8.6±2.6%. The “exposure time at which p53 upregulation is evident” value in data set [2] and in data set [3] was no more than 24 h throughout. In data set [4] (0.4 mg/kg SN-38 twice weekly x 4 weeks), the “tumor growth vs untreated and hA20-CL2A-SN-38” value is “significantly inhibited tumor growth”. The “tumor volume (TV)” value in [5] was determined as 0.36±0.25 cm^3. The “tolerability, body weight loss” value in [5] (in all murine studies) is “well tolerated in terms of body weight loss”. Moreover, in data set [6] (75 μCi 90Y-hPAM4 level, ADC alone, or their combination, n=10), the “tumor-free mice after 20 weeks” value is listed as 1 of 10. Further, the “improvement in KD vs naked hRS7” value in data set [7] (BIACORE) worked out at 2 fold. For the same substance, the Kd in data set [7] worked out at 260 ± 140 pM. In addition, in data set [8] (three different cell lines), the “loss of effector function (ADCC)” value is 60-70%. For the same substance, the CDC activity entry in data set [9] is “no CDC activity”. Further, the “induction of γH2AX vs non-targeting control ADC” value in [10] (BxPC-3, 30 min exposure) is given as “greater than two-fold induction”. In addition, the “Mean Fluorescence Intensity, γH2AX” value in data set [10] (BxPC-3, 20 μg/ml for 30 min) was found to be 5349 ± 234. In addition, the KD result in [11] is “sub-nanomolar range”.
As for hRS7 IgG, the figures for the “specific lysis (ADCC)” value in data set [1] and in data set [8] were 8.5% and 29.8±2.6%, respectively. The “exposure time at which p53 upregulation is evident” value in data set [2] and in [3] was 48 h throughout. Also, the “tumor volume (TV)” value in [4] (0.4 mg/kg, q4dx8, 28-day treatment period) is given as 1.77±0.93 cm^3; in data set [5], 1.30±1.08 cm^3. Moreover, the “anti-tumor activity of unconjugated antibodies” value in [6] (given alone) is given as “Neither unconjugated hPAM4 nor hRS7 antibodies had anti-tumor activity”. In data set [7], the equilibrium dissociation constant (Kd) was found to be 510 ± 40 pM. Besides, in data set [9], the CDC activity entry was “no CDC activity”. In addition, the “Percent Positive, γH2AX” value in [10] (BxPC-3, 20 μg/ml for 30 min, untreated 18.8 ± 6.3) came to 13.0 ± 0.6%. Moreover, the “Mean Fluorescence Intensity, γH2AX” value in [10] (BxPC-3, 20 μg/ml for 30 min) was determined as 2297 ± 18. Besides, in data set [11], the KD result was “sub-nanomolar range”.
